Reference: PMC7571065, “Design, Synthesis, In Vitro and In Silico Studies of New Thiazolylhydrazine-Piperazine Derivatives as Selective MAO-A Inhibitors” (Molecules, 2020)
“Also recorded” adds a separate entry of the source. Like-named read-outs stand apart in the source and are kept apart here.

Columns and labels:
MAO-A [1] = biological target: T1, MAO-A (Homo sapiens, UniProt P21397); test: In vitro fluorometric MAO-A inhibition assay (Ampliflu Red, tyramine); assay type: biochemical; conditions: for inhibition at 0.001 µM / inhibition at 0.01 µM / inhibition at 0.1 µM / inhibition at 1 µM / inhibition at 10 µM: read-out: MAO-A % Inhibition; for IC50: mean ± SD, read-out: IC50 against MAO-A
T1 construct: purchased Sigma-Aldrich (Steinheim, Germany)
T1 sequence (P21397 1-527): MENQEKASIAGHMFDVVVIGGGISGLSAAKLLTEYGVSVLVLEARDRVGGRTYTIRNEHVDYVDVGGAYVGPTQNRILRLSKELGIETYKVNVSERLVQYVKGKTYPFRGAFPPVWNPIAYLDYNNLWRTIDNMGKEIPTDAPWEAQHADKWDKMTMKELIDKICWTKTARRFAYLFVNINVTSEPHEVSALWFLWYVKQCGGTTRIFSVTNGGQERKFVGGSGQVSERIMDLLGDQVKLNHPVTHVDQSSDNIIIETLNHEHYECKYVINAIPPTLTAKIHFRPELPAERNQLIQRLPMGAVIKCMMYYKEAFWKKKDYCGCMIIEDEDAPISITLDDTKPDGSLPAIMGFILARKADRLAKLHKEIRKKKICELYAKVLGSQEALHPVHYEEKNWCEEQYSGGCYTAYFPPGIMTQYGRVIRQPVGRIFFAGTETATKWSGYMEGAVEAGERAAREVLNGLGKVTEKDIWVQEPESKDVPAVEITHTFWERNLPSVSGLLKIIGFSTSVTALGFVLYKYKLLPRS

recombinant MAO-B = biological target: T2, recombinant MAO-B (Homo sapiens, UniProt P27338); test: In vitro fluorometric MAO-B inhibition assay (Ampliflu Red, tyramine); assay type: biochemical
T2 construct: purchased Sigma-Aldrich (Steinheim, Germany)
T2 sequence (P27338 1-520): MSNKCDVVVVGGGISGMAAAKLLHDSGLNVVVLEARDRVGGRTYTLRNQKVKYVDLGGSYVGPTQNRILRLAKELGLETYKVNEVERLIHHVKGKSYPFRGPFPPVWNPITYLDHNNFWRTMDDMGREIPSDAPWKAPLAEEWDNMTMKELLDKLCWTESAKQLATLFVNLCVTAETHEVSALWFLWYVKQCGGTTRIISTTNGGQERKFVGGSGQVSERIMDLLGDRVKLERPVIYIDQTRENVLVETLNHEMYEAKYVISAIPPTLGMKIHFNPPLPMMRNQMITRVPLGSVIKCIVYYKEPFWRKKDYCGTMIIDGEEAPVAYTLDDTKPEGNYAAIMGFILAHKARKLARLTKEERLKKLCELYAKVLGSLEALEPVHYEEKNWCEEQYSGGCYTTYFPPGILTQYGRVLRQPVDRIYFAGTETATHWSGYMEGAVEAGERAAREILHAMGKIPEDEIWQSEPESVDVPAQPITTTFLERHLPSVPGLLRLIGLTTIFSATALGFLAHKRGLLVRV

MAO-A [2] = biological target: T1, MAO-A; test: Enzyme kinetic studies (Lineweaver-Burk and secondary plot); assay type: biochemical
Procedure: The same materials were used in the MAO inhibition assay. […] All processes were evaluated in quadruplicate. The results were analyzed by means of Microsoft Office Excel 2013 as Lineweaver-Burk diagrams. […] of the Lineweaver-Burk plots were replotted versus the inhibitor concentration, and the Ki values were determined from the x-axis intercept as Ki.
The MAO-A inhibition mechanism was defined by conducting enzyme kinetics experiments utilizing a protocol close to that of the MAO inhibition assay. […] To estimate the type of inhibition of this compound, linear Lineweaver-Burk graphs were used. The velocity curves of the substrates were reported in the absence and presence of compound 3e. In each case, the initial velocity measurements were collected at various concentrations of substrates (tyramine) varying from 20 μM to 0.625 μM.
According to the Lineweaver-Burk plots, the type of inhibition consists of two general classes: reversible and irreversible. Mixed-type, uncompetitive, competitive and noncompetitive inhibition types are included in the reversible inhibition. […] Competitive inhibition is seen if the lines intersect on the y-axis, and the slopes and x-intercepts are different. On the contrary, non-competitive inhibition has the opposite result: the plotted lines have the same x-intercept but there are diverse slopes and y-intercepts.

Cytotoxicity MTT assay = assay type: cell-based; conditions: mouse, NIH/3T3 mouse embryonic fibroblast cells, tested 1 mM to 0.000316 mM, read-out: IC50 NIH/3T3 Cell Line
Procedure: The NIH/3T3 mouse embryonic fibroblast cell line (ATCC® CRL-1658 ™, London, UK) was used for cytotoxicity assays. The incubation period of NIH/3T3 cells was based on the supplier’s recommendation. NIH/3T3 cells were seeded at 1 × 10^4 cells into each well of 96-well plates. MTT assay was carried out in accordance with the standards previously described manner.

inhibition at 1000 µM (MAO-A [1]; 10^−3 M) [%] | inhibition at 100 µM (MAO-A [1]; 10^−4 M) [%] | melting point [°C] | inhibition at 1000 µM (recombinant MAO-B; 10^−3 M) [%] | inhibition at 100 µM (recombinant MAO-B; 10^−4 M) [%] | SMILES | further results
71 ± 1.11 | 31.5 ± 0.732 | 252 to 254 | 34.6 ± 0.886 | 27.6 ± 0.649 | Cc1ccc(-c2csc(NN=Cc3ccc(N4CCN(C)CC4)cc3)n2)cc1 [Compound 3b, 2-{2-[4-(4-Methylpiperazin-1-yl)benzylidene]hydrazinyl}-4-(4-methylphenyl)thiazole] | –
75.9 ± 1.24 | 40.7 ± 0.98 | 247 to 249 | 30.7 ± 0.912 | 24.7 ± 0.854 | CN1CCN(c2ccc(C=NNc3nc(-c4ccc(F)cc4)cs3)cc2)CC1 [Compound 3f, 2-{2-[4-(4-Methylpiperazin-1-yl)benzylidene]hydrazinyl}-4-(4-fluorophenyl)thiazole] | –
73.7 ± 1.11 | 33.5 ± 0.833 | 249 to 250 | 31.2 ± 0.789 | 24 ± 0.623 | CN1CCN(c2ccc(C=NNc3nc(-c4ccc(Cl)cc4)cs3)cc2)CC1 [Compound 3g, 2-{2-[4-(4-Methylpiperazin-1-yl)benzylidene]hydrazinyl}-4-(4-chlorophenyl)thiazole] | –
70.8 ± 1.32 | 37.9 ± 0.796 | 253 to 255 | 34.4 ± 0.824 | 22.1 ± 0.796 | CN1CCN(c2ccc(C=NNc3nc(-c4ccc(Br)cc4)cs3)cc2)CC1 [Compound 3h, 2-{2-[4-(4-Methylpiperazin-1-yl)benzylidene]hydrazinyl}-4-(4-bromophenyl)thiazole] | –
72.3 ± 1.03 | 38.1 ± 0.798 | 238 to 240 | 28.1 ± 0.901 | 20 ± 0.792 | Cc1ccc(-c2csc(NN=Cc3ccc(N4CCN(C)CC4)cc3)n2)c(C)c1 [Compound 3j, 2-{2-[4-(4-Methylpiperazin-1-yl)benzylidene]hydrazinyl}-4-(2,4-dimethylphenyl)thiazole] | –
80 ± 1.3 | 35.1 ± 0.833 | 250 to 251 | 29.6 ± 0.782 | 23.2 ± 0.876 | CN1CCN(c2ccc(C=NNc3nc(-c4ccc(F)cc4F)cs3)cc2)CC1 [Compound 3k, 2-{2-[4-(4-Methylpiperazin-1-yl)benzylidene]hydrazinyl}-4-(2,4-difluorophenyl)thiazole] | –

The next lines start with the molecule.

SMILES | inhibition at 1000 µM (MAO-A [1]; 10^−3 M) [%] | inhibition at 100 µM (MAO-A [1]; 10^−4 M) [%] | melting point [°C] | inhibition at 1000 µM (recombinant MAO-B; 10^−3 M) [%] | inhibition at 100 µM (recombinant MAO-B; 10^−4 M) [%] | further results
C#CCN(C)CCCOc1ccc(Cl)cc1Cl [Clorgiline, clorgiline, reference compound] | – | – | – | – | – | inhibition at 0.001 µM (MAO-A [1]): 22.5 ± 0.736%; inhibition at 0.01 µM (MAO-A [1]): 34.2 ± 0.841%; inhibition at 0.1 µM (MAO-A [1]): 65.2 ± 0.997%; inhibition at 1 µM (MAO-A [1]): 78.5 ± 1.02%; inhibition at 10 µM (MAO-A [1]): 87.6 ± 1.46%
CN1CCN(c2ccc(C=NNc3nc(-c4ccccc4)cs3)cc2)CC1 [Compound 3a, 2-{2-[4-(4-Methylpiperazin-1-yl)benzylidene]hydrazinyl}-4-phenylthiazole] | 68.1 ± 1.03 | 34.3 ± 0.851 | 254 to 255 | 32.3 ± 0.985 | 25 ± 0.721 | –
COc1ccc(-c2csc(NN=Cc3ccc(N4CCN(C)CC4)cc3)n2)cc1 [Compound 3c, 2-{2-[4-(4-Methylpiperazin-1-yl)benzylidene]hydrazinyl}-4-(4-methoxyphenyl)thiazole] | 92.1 ± 2.22 | 87.7 ± 1.87 | 226 to 228 | 30.3 ± 0.812 | 21.5 ± 0.879 | inhibition at 10 µM (MAO-A [1]; 10^−5 M): 75.4 ± 1.43%; inhibition at 1 µM (MAO-A [1]; 10^−6 M): 71 ± 1.09%; inhibition at 0.1 µM (MAO-A [1]; 10^−7 M): 48.3 ± 0.869%; inhibition at 0.01 µM (MAO-A [1]; 10^−8 M): 30.9 ± 0.711%; inhibition at 0.001 µM (MAO-A [1]; 10^−9 M): 21.8 ± 0.638%; IC50 (MAO-A [1]): 188 ± 8 nM
CN1CCN(c2ccc(C=NNc3nc(-c4ccc(C#N)cc4)cs3)cc2)CC1 [Compound 3d, 2-{2-[4-(4-Methylpiperazin-1-yl)benzylidene]hydrazinyl}-4-(4-cyanophenyl)thiazole] | 90.2 ± 2.04 | 84.4 ± 1.81 | 234 to 235 | 36.6 ± 0.903 | 26 ± 0.836 | inhibition at 10 µM (MAO-A [1]; 10^−5 M): 81.1 ± 1.94%; inhibition at 1 µM (MAO-A [1]; 10^−6 M): 79 ± 1.25%; inhibition at 0.1 µM (MAO-A [1]; 10^−7 M): 49.6 ± 0.811%; inhibition at 0.01 µM (MAO-A [1]; 10^−8 M): 30.6 ± 0.699%; inhibition at 0.001 µM (MAO-A [1]; 10^−9 M): 18.1 ± 0.593%; IC50 (MAO-A [1]): 117 ± 4 nM
CN1CCN(c2ccc(C=NNc3nc(-c4ccc([N+](=O)[O-])cc4)cs3)cc2)CC1 [Compound 3e, 2-{2-[4-(4-Methylpiperazin-1-yl)benzylidene]hydrazinyl}-4-(4-nitrophenyl)thiazole] | 95.3 ± 1.9 | 90.8 ± 1.73 | – | 39.1 ± 0.81 | 28.2 ± 0.791 | inhibition at 10 µM (MAO-A [1]; 10^−5 M): 85 ± 1.03%; inhibition at 1 µM (MAO-A [1]; 10^−6 M): 82.4 ± 1.39%; inhibition at 0.1 µM (MAO-A [1]; 10^−7 M): 63.9 ± 0.893%; inhibition at 0.01 µM (MAO-A [1]; 10^−8 M): 42.6 ± 0.835%; inhibition at 0.001 µM (MAO-A [1]; 10^−9 M): 23 ± 0.715%; IC50 (MAO-A [1]): 57 ± 2 nM; inhibition type (MAO-A [2]; Lineweaver-Burk plots): competitive and reversible; also recorded: reversible and competitive; Ki (MAO-A [2]; secondary plot, substrate tyramine, read-out: Ki (steady-state inhibition constant)): 11 nM; IC50 (Cytotoxicity MTT assay): > 1 mM
CN1CCN(c2ccc(C=NNc3nc(-c4ccc(-c5ccccc5)cc4)cs3)cc2)CC1 [Compound 3i, 2-{2-[4-(4-Methylpiperazin-1-yl)benzylidene]hydrazinyl}-4-([1,1’-biphenyl]-4-yl)thiazole] | 66.2 ± 0.972 | 41.5 ± 0.87 | 275 to 276 | 30.6 ± 0.836 | 21.5 ± 0.809 | –
CN1CCN(c2ccc(C=NNc3nc(-c4ccc(Cl)cc4Cl)cs3)cc2)CC1 [Compound 3l, 2-{2-[4-(4-Methylpiperazin-1-yl)benzylidene]hydrazinyl}-4-(2,4-chlorophenyl)thiazole] | – | – | – | – | – | MAO-A % Inhibition (MAO-A [1]; 10^−3 M): 73.521 ± 1.180%; MAO-A % Inhibition (MAO-A [1]; 10^−4 M): 40.578 ± 0.914%; MAO-B % Inhibition (recombinant MAO-B; 10^−3 M): 33.667 ± 0.991%; MAO-B % Inhibition (recombinant MAO-B; 10^−4 M): 21.373 ± 0.769%
